According to US4898940A (priority 1989, dated 1990):
Values after ≈ are worked out from the molar mass of the structure shown.

Tests used:
[1] = system: Bacillus subtilis; assay: MIC, serial agar dilution (nutrient agar); type: cell-based; conditions: Bacillus subtilis PCI-219
From the text: (§1) Nutrient agar (Eiken) was used for bacteria and Sabouraud dextrose agar (Difco) for fungi. The inoculum size was adjusted to 10^4 CFU/ml for bacteria and 10^5 -10^7 CFU/ml for fungi.

[2] = system: Enterobacter cloacae; assay: MIC, serial agar dilution (nutrient agar); type: cell-based; conditions: Enterobacter cloacae A9659
From the text: as §1

[3] = system: Escherichia coli; assay: MIC, serial agar dilution (nutrient agar); type: cell-based; conditions: Escherichia coli NIHJ
From the text: as §1

[4] = system: Klebsiella pneumoniae; assay: MIC, serial agar dilution (nutrient agar); type: cell-based; conditions: Klebsiella pneumoniae D-11
From the text: as §1

[5] = system: Micrococcus luteus; assay: MIC, serial agar dilution (nutrient agar); type: cell-based; conditions: Micrococcus luteus PCI-1001
From the text: as §1

[6] = system: Morganella morganii; assay: MIC, serial agar dilution (nutrient agar); type: cell-based; conditions: Morganella morganii A9553
From the text: as §1

[7] = system: Proteus mirabilis; assay: MIC, serial agar dilution (nutrient agar); type: cell-based; conditions: Proteus mirabilis A9554
From the text: as §1

[8] = system: Proteus vulgaris; assay: MIC, serial agar dilution (nutrient agar); type: cell-based; conditions: Proteus vulgaris A9436
From the text: as §1

[9] = system: Pseudomonas aeruginosa; assay: MIC, serial agar dilution (nutrient agar); type: cell-based; conditions: Pseudomonas aeruginosa A9930
From the text: as §1

[10] = system: Serratia marcescens; assay: MIC, serial agar dilution (nutrient agar); type: cell-based; conditions: Serratia marcescens A20222
From the text: as §1

[11] = system: Staphylococcus aureus; assay: MIC, serial agar dilution (nutrient agar); type: cell-based
From the text: as §1

[12] = system: Staphylococcus epidermidis; assay: MIC, serial agar dilution (nutrient agar); type: cell-based
From the text: as §1

[13] = system: Streptococcus faecalis; assay: MIC, serial agar dilution (nutrient agar); type: cell-based; conditions: Streptococcus faecalis A9612
From the text: as §1

[14] = system: Aspergillus flavus; assay: MIC, serial agar dilution (Sabouraud dextrose agar); type: cell-based; conditions: Aspergillus flavus FA 21436
From the text: as §1

[15] = system: Aspergillus fumigatus; assay: as above; type: cell-based
From the text: as §1

[16] = system: Blastomyces dermaditis; assay: as above; type: cell-based; conditions: Blastomyces dermaditis IFO 8144
From the text: as §1

[17] = system: Candida albicans; assay: as above; type: cell-based
From the text: as §1

[18] = system: Cryptococcus neoformans; assay: as above; type: cell-based
From the text: as §1

[19] = system: Fusarium moniliforme; assay: as above; type: cell-based; conditions: Fusarium moniliforme A 2284
From the text: as §1

[20] = system: Mucor spinosus; assay: as above; type: cell-based; conditions: Mucor spinosus IFO 5317
From the text: as §1

[21] = system: Petriellidium boydii; assay: as above; type: cell-based; conditions: Petriellidium boydii IFO 8073
From the text: as §1

[22] = system: Sporothrix schenckii; assay: as above; type: cell-based; conditions: Sporothrix schenckii IFO 8158
From the text: as §1

[23] = system: Trichophyton mentagrophytes; assay: as above; type: cell-based
From the text: as §1

[24] = system: Piricularia oryzae; type: cell-based; conditions: Piricularia oryzae D 91; Sabouraud dextrose agar
[25] = system: Lymphocytic leukemia P388; assay: Antitumor activity against P388 leukemia in mice; type: in vivo, CDF1 and BDF1 mice; conditions: for T/C % of MST: P388 leukemia; for antitumor activity against P388 leukemia (in words): ip
Method: (§2) Lymphocytic leukemia P388 (CDF1 and BDF1 mice) and lymphoid leukemia L1210 (BDF1 mice) were inoculated by intraperitoneal injection of 0.8 ml diluted ascitic fluid containing 10^6 and 10^5 cells per mouse, respectively. Melanotic melanoma B16 (BDF1 mice) were implanted 0.5 ml of a 10% tumor brei intraperitoneally. Test materials were dissolved in 0.9% saline containing 10% dimethyl sulfoxide and graded doses of them were administered to mice intraperitoneally 24 hours after tumor implantation. Either olivomycin (NSC 38270) or mitomycin C was comparatively tested as a reference compound in the experiments.
Values for percentage ratios of 125 and above indicate significant antitumor effect.

[26] = Solubility in solvents; type: physicochemical
[27] = system: gram-positive and gram-negative bacteria; assay: In vitro antibacterial activity; type: cell-based
From the text: as §1

[28] = system: pathogenic fungi such as Candida albicans, Cryptococcus neoformans, Aspergillus fumigatus, Trichlophyton mentagrophytes and Mucor spinosus; assay: In vitro antifungal activity; type: cell-based; conditions: clinically important pathogenic fungi
From the text: as §1

[29] = Acute toxicity, single intraperitoneal administration; conditions: male ddY mice
[30] = system: lymphoid leukemia L1210; assay: Antitumor activity against L1210 leukemia in mice; type: in vivo, BDF1 mice; conditions: L1210 leukemia, BDF1 mice
Method: as §2

[31] = system: Melanotic melanoma B16; assay: Antitumor activity against B16 melanoma in mice; type: in vivo, BDF1 mice; conditions: B16 melanoma, BDF1 mice
Method: as §2

[32] = Staphylococcus epidermidis A22152
[33] = Staphylococcus epidermidis D153
[34] = Cryptococcus neoformans IAM 4514
[35] = Trichophyton mentagrophytes #4329
[36] = Trichophyton mentagrophytes D 155
[37] = 0.031 mg/kg/day ip, schedule 2 (once daily on days 1 through 9)
[38] = 0.063 mg/kg/day ip, schedule 2 (once daily on days 1 through 9)
[39] = 0.13 mg/kg/day ip, schedule 2 (once daily on days 1 through 9)
[40] = 0.25 mg/kg/day ip, schedule 2 (once daily on days 1 through 9)
[41] = 0.3 mg/kg/day ip, schedule 1 (once daily on days 1, 4 and 7)
[42] = 0.5 mg/kg/day ip, schedule 2 (once daily on days 1 through 9)
[43] = 1 mg/kg/day ip, schedule 2 (once daily on days 1 through 9)
[44] = 3 mg/kg/day ip, schedule 1 (once daily on days 1, 4 and 7)
[45] = treatment schedule 1 (once daily on days 1, 4 and 7)

CCCCCCCCCC=CC=CC(=O)NC(C(=O)NC1CC(O)CCNC(=O)C=CC(C)NC1=O)C(C)O (stereo not drawn) [BU-2867T C]
MIC [1]: > 50 µg/mL | MIC [2]: > 50 µg/mL | MIC [3]: > 50 µg/mL | MIC [4]: > 50 µg/mL | MIC [5]: > 50 µg/mL | MIC [6]: > 50 µg/mL | MIC [7]: > 50 µg/mL | MIC [8]: > 50 µg/mL | MIC [9]: > 50 µg/mL | MIC [10]: > 50 µg/mL | MIC ([11]; Staphyloccus aureus Bx-1633): > 50 µg/mL | MIC ([11]; Staphylococcus aureus 209P): > 50 µg/mL | MIC ([11]; Staphylococcus aureus Smith): > 50 µg/mL | MIC [12, 32]: > 50 µg/mL | MIC [12, 33]: > 50 µg/mL | MIC [13]: > 50 µg/mL | MIC [14]: 50 µg/mL (≈ 91.1 µM) | MIC ([15]; Aspergillus fumigatus IAM 2034): 0.8 µg/mL (≈ 1.46 µM) | MIC ([15]; Aspergillus fumigatus IAM 2530): 0.8 µg/mL (≈ 1.46 µM) | MIC [16]: > 50 µg/mL | MIC ([17]; Candida albicans A 9540): 0.8 µg/mL (≈ 1.46 µM) | MIC ([17]; Candida albicans IAM 4888): 1.6 µg/mL (≈ 2.92 µM) | MIC ([18]; Cryptococcus neoformans D 49): 3.1 µg/mL (≈ 5.65 µM) | MIC [18, 34]: 3.1 µg/mL (≈ 5.65 µM) | MIC [19]: > 50 µg/mL | MIC [20]: 0.2 µg/mL (≈ 0.364 µM) | MIC [21]: 50 µg/mL (≈ 91.1 µM) | MIC [22]: > 50 µg/mL | MIC [23, 35]: 6.3 µg/mL (≈ 11.5 µM) | MIC [23, 36]: 1.6 µg/mL (≈ 2.92 µM) | MIC [24]: > 50 µg/mL | T/C % of MST [25, 37]: 100% | T/C % of MST [25, 38]: 123% | T/C % of MST [25, 39]: 153% | T/C % of MST [25, 40]: 159% | T/C % of MST [25, 41]: 130% | T/C % of MST [25, 42]: 175% | T/C % of MST [25, 43]: 189% | T/C % of MST ([25]; 2 mg/kg/day ip, schedule 2 (once daily on days 1 through 9)): 234% | T/C % of MST [25, 44]: 155% | antitumor activity against P388 leukemia (in words) [25, 45]: showed antitumor activity | antitumor activity against P388 leukemia (in words) ([25]; treatment schedule 2 (once daily on days 1 through 9)): highly active | solubility in chloroform, acetonitrile and ethyl acetate [26]: slightly soluble | solubility in methanol, ethanol, n-butanol and dimethyl sulfoxide [26]: readily soluble | solubility in n-hexane and water [26]: practically insoluble | growth inhibition of gram-positive and gram-negative bacteria (in words) ([27]; at 50 mcg/ml): did not inhibit the growth | antifungal activity (in words) [28]: potent antifungal activity | LD50 [29]: 25 mg/kg

Olivomycin A [reference compound]
T/C % of MST [25, 41]: 100%

CO[C@@]12[C@H](COC(N)=O)C3=C(C(=O)C(C)=C(N)C3=O)N1C[C@@H]1N[C@@H]12 [Mitomycin C, reference compound]
T/C % of MST [25, 37]: 115% | T/C % of MST [25, 38]: 130% | T/C % of MST [25, 39]: 150% | T/C % of MST [25, 40]: 170% | T/C % of MST [25, 42]: 240% | T/C % of MST [25, 43]: 290% | T/C % of MST ([30]; 0.063 mg/kg/day ip): 106% | T/C % of MST ([30]; 0.13 mg/kg/day ip): 129% | T/C % of MST ([30]; 0.25 mg/kg/day ip): 129% | T/C % of MST ([30]; 0.5 mg/kg/day ip): 141% | T/C % of MST ([30]; 1 mg/kg/day ip): 140% | T/C % of MST ([31]; 0.13 mg/kg/day ip): 131% | T/C % of MST ([31]; 0.25 mg/kg/day ip): 141% | T/C % of MST ([31]; 0.5 mg/kg/day ip): 163% | T/C % of MST ([31]; 1 mg/kg/day ip): 181% | T/C % of MST ([31]; 2 mg/kg/day ip): 63%

CCCCCC=CCCC=CC=CC(=O)NC(C(=O)NC1CC(O)CCNC(=O)C=CC(C)NC1=O)C(C)O (stereo not drawn) [BU-2867T B]
MIC [1]: 50 µg/mL (≈ 91.5 µM) | MIC [2]: > 50 µg/mL | MIC [3]: > 50 µg/mL | MIC [4]: > 50 µg/mL | MIC [5]: 50 µg/mL (≈ 91.5 µM) | MIC [6]: > 50 µg/mL | MIC [7]: > 50 µg/mL | MIC [8]: > 50 µg/mL | MIC [9]: > 50 µg/mL | MIC [10]: > 50 µg/mL | MIC ([11]; Staphyloccus aureus Bx-1633): 50 µg/mL (≈ 91.5 µM) | MIC ([11]; Staphylococcus aureus 209P): 25 µg/mL (≈ 45.7 µM) | MIC ([11]; Staphylococcus aureus Smith): 3.1 µg/mL (≈ 5.67 µM) | MIC [12, 32]: 50 µg/mL (≈ 91.5 µM) | MIC [12, 33]: 6.3 µg/mL (≈ 11.5 µM) | MIC [13]: > 50 µg/mL | MIC [14]: 25 µg/mL (≈ 45.7 µM) | MIC ([15]; Aspergillus fumigatus IAM 2034): 3.1 µg/mL (≈ 5.67 µM) | MIC ([15]; Aspergillus fumigatus IAM 2530): 31 µg/mL (≈ 56.7 µM) | MIC [16]: 50 µg/mL (≈ 91.5 µM) | MIC ([17]; Candida albicans A 9540): 1.6 µg/mL (≈ 2.93 µM) | MIC ([17]; Candida albicans IAM 4888): 3.1 µg/mL (≈ 5.67 µM) | MIC ([18]; Cryptococcus neoformans D 49): 25 µg/mL (≈ 45.7 µM) | MIC [18, 34]: 25 µg/mL (≈ 45.7 µM) | MIC [19]: > 50 µg/mL | MIC [20]: 0.8 µg/mL (≈ 1.46 µM) | MIC [21]: > 50 µg/mL | MIC [22]: > 50 µg/mL | MIC [23, 35]: 12.5 µg/mL (≈ 22.9 µM) | MIC [23, 36]: 12.5 µg/mL (≈ 22.9 µM) | MIC [24]: > 50 µg/mL | T/C % of MST [25, 41]: 120% | T/C % of MST ([25]; 1 mg/kg/day ip, schedule 1 (once daily on days 1, 4 and 7)): 140% | T/C % of MST [25, 44]: 165% | antitumor activity against P388 leukemia (in words) [25, 45]: showed antitumor activity | solubility in chloroform, acetonitrile and ethyl acetate [26]: slightly soluble | solubility in methanol, ethanol, n-butanol and dimethyl sulfoxide [26]: readily soluble | solubility in n-hexane and water [26]: practically insoluble | activity against some gram-positive bacteria (in words) [27]: moderate activity | antifungal activity (in words) [28]: somewhat less active than component C
